≈ marks a conversion by molar mass, not a printed value. Like-named read-outs stand apart in the source and are kept apart here. Numbered stars: 1 amine (or outer) side, 2 acyl side, 3 side chain; on linkers, the order of the positions; unused ones are H or OH. Bridge positions count the residues as written; N and C are the ends. Side chains are listed from the residue outwards. Peptide text beside a SMILES is read from it. * marks the point of attachment. C20 diacid = O=C(O)CCCCCCCCCCCCCCCCCCC(=O)*; γGlu = O=C(O)[C@H](CCC(=O)[*:2])N[*:1]; AEEA = NCCOCCOCC(=O)O
Experiments:
Sprague Dawley (SD) rats = test: ASSAY (I) efficacy testing on appetite (food intake) using an ad libitum fed rat model; format: in vivo; settings: rat, 30 nmol/kg
From the text: Sprague Dawley (SD) rats from Taconic Europe, Denmark are used for the experiments. The rats have a body weight 200-250 g at the start of experiment. The rats arrive at least 10-14 days before start of experiment to allow acclimatization to experimental settings. During this period the animals are handled at least 2 times. After arrival rats are housed individually for one week in a reversed light/dark phase (meaning that lights are off during daytime and on during nighttime) for two weeks. Since rats are normally active and eat their major part of their daily food intake during the dark period, rats are dosed in the morning right before lights are turned off. This set-up results in the lowest data variation and highst test sensitivity. The experiment is conducted in the rats' home cages and rats have free access to food and water throughout the acclimatization period and the experiment period. Each dose of derivative is tested in a group of 5-8 rats. A vehicle group of 6-8 rats is included in each set of testing. Rats are dosed once according to body weight with a 0.01-3 mg/kg solution administered intraperitoneally (ip), orally (po) or subcutaneously (sc). The time of dosing is recorded for each group. After dosing, the rats are returned to their home cages, where they then have access to food and water. The food consumption is recorded individually continuously by online registration or manually every hour for 7 hours, and then after 24 h and sometimes 48 h. At the end of the experimental session, the animals are euthanized.
The individual data are recorded in Microsoft excel sheets. Outliers are excluded after applying the Grubbs statistical evaluation test for outliers, and the result is presented graphically using the GraphPad Prism program.

[1] = ASSAY (IV) determination of solubility; format: physicochemical
How it was run: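 Samples of polypeptide, prepared from a water stock at […] and diluted 1:1 into 100 mM buffers spanning pH 3.0 to 8.0, stood 18 hours at room temperature. Polypeptide concentration was then determined by UPLC following centrifugation.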

[2] = target: T1, human amylin receptor (membranes from Amylin 3(a)/CRE-luc cells) (Homo sapiens, UniProt O60896+P30988); test: ASSAY (V) binding to the human amylin receptor (SPA, 125I-rat amylin); settings: for IC50: Table 4, read-out: hAmylin-R bind IC50;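 as to all read-outs here: competition binding of cell membranes (35 ng/µL) mixed with SPA beads in 384-well plates at 40 µL total volume, read by scintillation counting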
T1 construct: expressed in transfected cells
T1 sequence (P30988 25-474): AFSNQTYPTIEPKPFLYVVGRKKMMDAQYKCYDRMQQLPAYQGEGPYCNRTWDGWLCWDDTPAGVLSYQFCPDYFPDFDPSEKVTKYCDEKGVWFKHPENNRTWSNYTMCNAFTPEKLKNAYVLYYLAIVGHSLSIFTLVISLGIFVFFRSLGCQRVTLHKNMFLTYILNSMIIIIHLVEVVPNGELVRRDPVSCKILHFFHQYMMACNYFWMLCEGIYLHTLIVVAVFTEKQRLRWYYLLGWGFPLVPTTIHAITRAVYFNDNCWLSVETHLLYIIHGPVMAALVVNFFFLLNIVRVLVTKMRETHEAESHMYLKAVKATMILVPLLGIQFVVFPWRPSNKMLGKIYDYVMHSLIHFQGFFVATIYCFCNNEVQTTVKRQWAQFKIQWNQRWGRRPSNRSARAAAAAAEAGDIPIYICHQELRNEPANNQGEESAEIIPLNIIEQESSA
T1 sequence (O60896 24-148 partner): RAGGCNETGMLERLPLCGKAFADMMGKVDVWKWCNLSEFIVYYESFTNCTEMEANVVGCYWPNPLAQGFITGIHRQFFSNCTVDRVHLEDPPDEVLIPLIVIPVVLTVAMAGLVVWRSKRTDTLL

rat calcitonin receptor = target: T2, rat calcitonin receptor (Rattus norvegicus, UniProt P32214); test: ASSAY (VIII) binding to the rat calcitonin receptor; settings: Table 7, read-out: rCTR bind IC50
T2 construct: expressed in transfected cells; host or cells: BHK tk'ts 13 (transient, FuGENE 6), membranes
T2 sequence (P32214 25-479 isoform P32214-2 limits assumed): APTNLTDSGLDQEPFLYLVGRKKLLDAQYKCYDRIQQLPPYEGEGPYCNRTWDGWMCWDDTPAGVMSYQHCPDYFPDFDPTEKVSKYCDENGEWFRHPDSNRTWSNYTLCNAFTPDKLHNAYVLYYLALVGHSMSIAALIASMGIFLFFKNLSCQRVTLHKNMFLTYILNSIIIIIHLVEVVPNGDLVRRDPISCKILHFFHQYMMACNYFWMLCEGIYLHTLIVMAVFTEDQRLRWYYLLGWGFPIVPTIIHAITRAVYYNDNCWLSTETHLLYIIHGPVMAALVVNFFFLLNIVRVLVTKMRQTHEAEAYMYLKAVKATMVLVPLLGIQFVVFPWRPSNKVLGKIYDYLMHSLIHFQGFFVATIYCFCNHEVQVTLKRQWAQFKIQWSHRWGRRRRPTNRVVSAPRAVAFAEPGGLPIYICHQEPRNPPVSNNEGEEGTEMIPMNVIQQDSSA
How it was run: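 Cell membranes for binding came from BHK tk′ts 13 cells harvested approximately 48 hours after transient transfection with the rat receptor.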

[3] = bistrispropane buffer, pH 6.5, read-out: Solubility pH 6.5 Concentration
[4] = bistrispropane buffer, pH 7.5, read-out: Solubility pH 7.5 Concentration
[5] = bistrispropane buffer, pH 6.0, read-out: Solubility pH 6.0 Concentration
[6] = bistrispropane buffer, pH 7.0, read-out: Solubility pH 7.0 Concentration
[7] = bistrispropane buffer, pH 8.0, read-out: Solubility pH 8.0 Concentration
[8] = glycylglycine buffer, pH 3.0, read-out: Solubility pH 3.0 Concentration
[9] = glycylglycine buffer, pH 4.0, read-out: Solubility pH 4.0 Concentration
[10] = glycylglycine buffer, pH 5.0, read-out: Solubility pH 5.0 Concentration
[11] = Table 5, selectivity, hCTR bind IC50 / hAmylin-R bind IC50
[12] = Table 5a, selectivity, hCTR bind IC50 / hAmylin-R bind IC50
[13] = Table 5b, selectivity, hCTR bind IC50 / hAmylin-R bind IC50
[14] = Table 5c, selectivity, hCTR bind IC50 / hAmylin-R bind IC50
[15] = Table 7, human binding selectivity, included for comparison
[16] = Table 7a (preferred compounds), human binding selectivity, included for comparison
[17] = ratio of human calcitonin receptor binding IC50 to human amylin receptor binding IC50

Structure (SMILES) | Food intake reduction 0-24 h 30 nmol/kg (%) (Sprague Dawley (SD) rats) | Food intake reduction 24-48 h 30 nmol/kg (%) (Sprague Dawley (SD) rats) | solubility at 18 h [1, 3] [µM] | solubility at 18 h [1, 4] [µM] | solubility at 18 h [1, 5] [µM] | solubility at 18 h [1, 6] [µM] | solubility at 18 h [1, 7] [µM] | solubility at 18 h [1, 8] [µM] | solubility at 18 h [1, 9] [µM] | solubility at 18 h [1, 10] [µM] | IC50 [2] [nM] | Ratio hCT/hAmylin binding [2, 11] | Ratio hCT/hAmylin binding [2, 12] | Ratio hCT/hAmylin binding [2, 13] | Ratio hCT/hAmylin binding [2, 14] | Ratio hCT/hAmylin binding [2, 15] | Ratio hCT/hAmylin binding [2, 16] | Ratio hCT/hAmylin binding [2, 17] | IC50 (rat calcitonin receptor) [nM]
CC[C@H](C)[C@H](NC(=O)[C@H](C)NC(=O)CNC(=O)[C@H](Cc1ccccc1)NC(=O)[C@H](CC(N)=O)NC(=O)[C@@H]1CCCN1C(=O)[C@H](CO)NC(=O)[C@H](CO)NC(=O)[C@H](Cc1c[nH]cn1)NC(=O)[C@H](CCCNC(=N)N)NC(=O)[C@H](CC(C)C)NC(=O)[C@H](Cc1ccccc1)NC(=O)[C@H](Cc1c[nH]cn1)NC(=O)[C@H](C)NC(=O)[C@H](CC(C)C)NC(=O)[C@H](CCCNC(=N)N)NC(=O)[C@H](CCC(N)=O)NC(=O)[C@@H](NC(=O)[C@H](C)NC(=O)[C@@H]1CSSC[C@H](NC(=O)[C@@H](N)CCCCNC(=O)COCCOCCNC(=O)CC[C@H](NC(=O)CCCCCCCCCCCCCCCCCCC(=O)O)C(=O)O)C(=O)N[C@@H](CC(N)=O)C(=O)N[C@@H]([C@@H](C)O)C(=O)N[C@@H](C)C(=O)N[C@@H]([C@@H](C)O)C(=O)N1)[C@@H](C)O)C(=O)N1CCC[C@H]1C(=O)N[C@@H](CO)C(=O)N[C@@H](CO)C(=O)N[C@H](C(=O)N[C@@H](CC(N)=O)C(=O)N[C@H](C(=O)NCC(=O)N[C@@H](Cc1c[nH]cn1)C(=O)N[C@@H](CC(N)=O)C(=O)N[C@H](C(=O)N[C@@H](Cc1ccc(O)cc1)C(N)=O)[C@@H](C)O)C(C)C)[C@@H](C)O [Example 80] (H-K([AEEA-γGlu-C20 diacid])CNTATCATQRLAHFLRHSSPNFGAIPSSTNVGHNTY-NH2; disulfide 2-7; N-terminus assumed) | 46 | 9 | ≥ 200 | ≥ 200 | ≥ 200 | ≥ 200 | ≥ 200 | ≥ 200 | ≥ 200 | ≥ 200 | 0.29 | 68.1 | 68.1 | 68.1 | 68.1 | 68.1 | 68.1 | 68.1 | 60.4
CC[C@H](C)[C@H](NC(=O)[C@H](C)NC(=O)CNC(=O)[C@H](Cc1ccccc1)NC(=O)[C@H](CC(N)=O)NC(=O)[C@@H]1CCCN1C(=O)[C@H](CO)NC(=O)[C@H](CO)NC(=O)[C@H](Cc1c[nH]cn1)NC(=O)[C@H](CCCNC(=N)N)NC(=O)[C@H](CC(C)C)NC(=O)[C@H](Cc1ccccc1)NC(=O)[C@H](CC(N)=O)NC(=O)[C@H](C)NC(=O)[C@H](CC(C)C)NC(=O)[C@H](CCCNC(=N)N)NC(=O)[C@H](CCC(N)=O)NC(=O)[C@@H](NC(=O)[C@H](C)NC(=O)[C@@H]1CSSC[C@H](NC(=O)[C@@H](N)CCCCNC(=O)CC[C@H](NC(=O)CC[C@H](NC(=O)CCCCCCCCCCCCCCCCCCC(=O)O)C(=O)O)C(=O)O)C(=O)N[C@@H](CC(N)=O)C(=O)N[C@@H]([C@@H](C)O)C(=O)N[C@@H](C)C(=O)N[C@@H]([C@@H](C)O)C(=O)N1)[C@@H](C)O)C(=O)N1CCC[C@H]1C(=O)N[C@@H](CO)C(=O)N[C@@H](CO)C(=O)N[C@H](C(=O)N[C@@H](CC(N)=O)C(=O)N[C@H](C(=O)NCC(=O)N[C@@H](Cc1c[nH]cn1)C(=O)N[C@@H](CC(N)=O)C(=O)N[C@H](C(=O)N[C@@H](Cc1ccc(O)cc1)C(N)=O)[C@@H](C)O)C(C)C)[C@@H](C)O [Example 86] (H-K([γGlu-γGlu-C20 diacid])CNTATCATQRLANFLRHSSPNFGAIPSSTNVGHNTY-NH2; disulfide 2-7) | 48 | 26 | ≥ 200 | 157 (≈ 716 µg/mL) | ≥ 200 | ≥ 200 | ≥ 200 | ≥ 200 | ≥ 200 | ≥ 200 | 0.833 | 159.3 | 159.3 | 159.3 | 159.3 | 159.3 | 159.3 | 159.3 | 352
CC[C@H](C)[C@H](NC(=O)[C@H](C)NC(=O)CNC(=O)[C@H](Cc1ccccc1)NC(=O)[C@H](CC(N)=O)NC(=O)[C@@H]1CCCN1C(=O)[C@H](CO)NC(=O)[C@H](CO)NC(=O)[C@H](Cc1c[nH]cn1)NC(=O)[C@H](CCCNC(=N)N)NC(=O)[C@H](CC(C)C)NC(=O)[C@H](Cc1ccccc1)NC(=O)[C@H](CC(N)=O)NC(=O)[C@H](C)NC(=O)[C@H](CC(C)C)NC(=O)[C@H](CCCNC(=N)N)NC(=O)[C@H](CCC(N)=O)NC(=O)[C@@H](NC(=O)[C@H](C)NC(=O)[C@@H]1CSSC[C@H](NC(=O)[C@@H](N)CCCCNC(=O)COCCOCCNC(=O)CC[C@H](NC(=O)CCCCCCCCCCCCCCCCCCC(=O)O)C(=O)O)C(=O)N[C@@H](CC(N)=O)C(=O)N[C@@H]([C@@H](C)O)C(=O)N[C@@H](C)C(=O)N[C@@H]([C@@H](C)O)C(=O)N1)[C@@H](C)O)C(=O)N1CCC[C@H]1C(=O)N[C@@H](CO)C(=O)N[C@@H](CO)C(=O)N[C@H](C(=O)N[C@@H](CC(N)=O)C(=O)N[C@H](C(=O)NCC(=O)N[C@@H](CO)C(=O)N[C@@H](CCCNC(=N)N)C(=O)N[C@H](C(=O)N[C@@H](Cc1ccc(O)cc1)C(N)=O)[C@@H](C)O)C(C)C)[C@@H](C)O [Example 38] | 47 | 0 | ≥ 200 | ≥ 200 | ≥ 200 | ≥ 200 | ≥ 200 | ≥ 200 | ≥ 200 | ≥ 200 | – | – | – | – | – | – | – | – | 38

Source: patent publication US9023789B2, “Amylin analogs and pharmaceutical compositions thereof” (Novo Nordisk A/S, priority 2012, dated 2015)
